Each block holds one compound with its values, some of them ahead of it.
Legend:
[1] = target: D(2) dopamine receptor (Homo sapiens, UniProt P14416)
Description: Binding affinity towards human dopamine receptor D2 was determined by using [3H]spiperone as radioligand

[2] = target: T1, D(4) dopamine receptor (Homo sapiens, UniProt P21917); assay: biochemical
T1 sequence (P21917 whole entry): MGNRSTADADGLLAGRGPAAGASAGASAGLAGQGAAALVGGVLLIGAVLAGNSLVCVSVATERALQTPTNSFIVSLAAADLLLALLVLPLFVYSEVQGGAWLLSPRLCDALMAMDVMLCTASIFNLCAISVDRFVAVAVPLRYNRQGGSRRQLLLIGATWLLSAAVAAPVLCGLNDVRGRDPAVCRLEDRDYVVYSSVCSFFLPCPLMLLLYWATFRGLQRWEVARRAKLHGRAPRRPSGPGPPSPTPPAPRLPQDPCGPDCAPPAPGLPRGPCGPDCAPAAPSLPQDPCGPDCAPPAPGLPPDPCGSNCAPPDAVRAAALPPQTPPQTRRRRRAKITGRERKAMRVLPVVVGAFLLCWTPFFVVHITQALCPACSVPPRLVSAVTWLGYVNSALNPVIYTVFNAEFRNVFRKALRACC
Description: Binding affinity towards human dopamine receptor D4 expressed in CHO cells was determined by using [3H]thymidine as radioligand

[3] = Binding affinity towards dopamine receptor D2 was determined; parameters: species or system Homo sapiens
[4] = Binding affinity towards dopamine receptor D3 was determined; parameters: species or system Homo sapiens
[5] = Binding affinity towards dopamine receptor D4 was determined; parameters: species or system Homo sapiens
[6] = Binding affinity to displace [3H]spiperone from dopamine receptor D2 was determined; parameters: species or system Homo sapiens
[7] = target: Sodium-dependent dopamine transporter (Homo sapiens, UniProt Q01959); assay: Ability of compound to inhibit dopamine uptake of receptor was determined; details: read-out: Log 1/Ki (converted)
Sodium-dependent dopamine transporter, sequence (Q01959 whole entry): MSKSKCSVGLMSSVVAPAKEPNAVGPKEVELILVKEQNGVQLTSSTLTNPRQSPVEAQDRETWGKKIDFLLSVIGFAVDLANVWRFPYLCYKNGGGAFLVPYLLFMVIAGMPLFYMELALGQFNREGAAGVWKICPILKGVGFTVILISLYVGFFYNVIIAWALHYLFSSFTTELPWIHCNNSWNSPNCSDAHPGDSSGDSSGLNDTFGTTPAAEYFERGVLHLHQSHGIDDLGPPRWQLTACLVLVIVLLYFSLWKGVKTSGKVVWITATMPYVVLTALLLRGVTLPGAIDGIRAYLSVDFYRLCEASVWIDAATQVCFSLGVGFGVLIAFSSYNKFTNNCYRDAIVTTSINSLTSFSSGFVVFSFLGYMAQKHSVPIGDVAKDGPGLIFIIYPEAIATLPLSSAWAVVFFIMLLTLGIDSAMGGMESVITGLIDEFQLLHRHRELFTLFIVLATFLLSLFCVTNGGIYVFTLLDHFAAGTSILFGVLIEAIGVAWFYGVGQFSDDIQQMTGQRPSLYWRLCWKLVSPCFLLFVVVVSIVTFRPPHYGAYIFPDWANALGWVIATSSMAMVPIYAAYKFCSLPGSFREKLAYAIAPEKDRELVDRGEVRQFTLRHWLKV

[8] = Binding affinity of compound towards dopamine receptor D2 was determined; parameters: species or system Homo sapiens
[9] = Binding affinity of compound towards dopamine receptor D3 was determined; parameters: species or system Homo sapiens

D(2) dopamine receptor, sequence (P14416 whole entry): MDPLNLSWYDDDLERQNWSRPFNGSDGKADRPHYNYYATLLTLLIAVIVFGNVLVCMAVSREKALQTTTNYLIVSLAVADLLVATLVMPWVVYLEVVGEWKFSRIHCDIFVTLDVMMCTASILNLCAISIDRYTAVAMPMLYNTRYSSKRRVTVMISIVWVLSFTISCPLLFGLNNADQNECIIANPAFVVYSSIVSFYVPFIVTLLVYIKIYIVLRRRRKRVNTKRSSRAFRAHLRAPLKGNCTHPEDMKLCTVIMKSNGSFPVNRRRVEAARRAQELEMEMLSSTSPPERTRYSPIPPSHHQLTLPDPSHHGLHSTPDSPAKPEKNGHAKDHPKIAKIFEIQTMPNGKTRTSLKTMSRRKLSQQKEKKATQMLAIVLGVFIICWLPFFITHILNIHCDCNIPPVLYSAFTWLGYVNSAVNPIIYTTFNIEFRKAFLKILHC

Ki [1]: 49 nM | Ki [2]: 219 nM
Compound: Cc1ccc(C(=O)NCN2CCN(c3ccccc3Cl)CC2)cc1

Compound: O=C(CCCN1CCC(c2ccc(Cl)cc2)CC1)c1ccc(F)cc1
Log 1/Ki [3]: 7.81 | Log 1/Ki [4]: 7.34 | Log 1/Ki [5]: 7.59

Ki [1]: 3020 nM | Ki [2]: 24 nM
Compound: N#Cc1ccccc1N1CCN(CNC(=O)c2ccccc2)CC1

Log 1/Ki [3]: 7.58 | Log 1/Ki [4]: 6.79 | Log 1/Ki [5]: 6.72
Compound: CN(CCCC(=O)c1ccc(F)cc1)CCC(O)c1ccc(Cl)cc1 (stereo not given)

Ki [1]: 2290 nM | Ki [2]: 5.25 nM
Compound: N#Cc1ccccc1N1CCN(CNC(=O)c2cccc(Cl)c2)CC1

Log 1/Ki [3]: 7.36 | Log 1/Ki [4]: 6.78 | Log 1/Ki [5]: 7.62
Compound: O=C(CCCN1CCC(CO)(c2ccc(Cl)cc2)C1)c1ccc(F)cc1 (stereo not given)

Ki [1]: 1450 nM
Compound: COc1ccccc1N1CCN(CNC(=O)c2cccc(Cl)c2)CC1

Log 1/Ki [6]: 8.89
Compound: CCCc1cc(OC)c(OC)c(C(=O)NCC2CCCN2CC)c1O (stereo not given)

Compound: O=C(NCCN1C2CCC1CC(OC(c1ccc(F)cc1)c1ccc(F)cc1)C2)c1cccnc1 (stereo not given)
Ki [7]: 14.1 nM

Log 1/Ki [8]: 5.88
Compound: COc1ccccc1N1CCN(CCNC2=CCN3c4c(n(C)c(=O)n(C)c4=O)NC3N2)CC1 (stereo not given)

Ki [1]: 174 nM | Ki [2]: 3.39 nM
Compound: COc1ccccc1N1CCN(CNC(=O)c2ccc(C)cc2)CC1

Compound: O=C(NCCN1C2CCC1CC(OC(c1ccc(F)cc1)c1ccc(F)cc1)C2)c1ccccc1 (stereo not given)
Ki [7]: 6.46 nM

Ki [1]: 468 nM | Ki [2]: 15.8 nM
Compound: Cc1cccc(C(=O)NCN2CCN(c3ccccc3Cl)CC2)c1

Log Ki [4]: -9.7
Compound: COc1ccccc1N1CCN(CCCCNC(=O)c2ccc(-c3ccc(N)cc3)cc2)CC1

Log 1/Ki [8]: 6.65
Compound: COc1ccccc1N1CCN(CCNC2=C(Br)CN3c4c(n(C)c(=O)n(C)c4=O)NC3N2)CC1 (stereo not given)

Log Ki [4]: -8.2
Compound: O=C(NCCCCN1CCN(c2ccccc2)CC1)c1ccc(Br)cc1

Log 1/Ki [6]: 9.11
Compound: CCN1CCCC1CNC(=O)c1c(O)c(CCF)cc(OC)c1OC (stereo not given)

Compound: O=C(CCN1[C@@H]2CC[C@H]1C[C@@H](OC(c1ccc(F)cc1)c1ccc(F)cc1)C2)Nc1ccccc1
Ki [7]: 5.01 nM

Log 1/Ki [6]: 8.28
Compound: CCN1CCCC1CNC(=O)c1cc(CCF)cc(OC)c1OC (stereo not given)

Compound: Fc1ccc(C(OC2CC3CCC(C2)N3CCCOc2ccccc2)c2ccc(F)cc2)cc1 (stereo not given)
Ki [7]: 229 nM

Ki [1]: 363 nM
Compound: O=C(NCN1CCN(c2ccccc2Cl)CC1)c1cccc(Cl)c1

Log 1/Ki [6]: 9.12
Compound: CCN1CCCC1CNC(=O)c1cc(Br)cc(OC)c1OC (stereo not given)

Ki [1]: 66.1 nM | Ki [2]: 8.32 nM
Compound: O=C(NCN1CCN(c2ccccc2Cl)CC1)c1ccc(Cl)cc1

Ki [1]: 2450 nM | Ki [2]: 30.9 nM
Compound: COc1ccccc1N1CCN(CNC(=O)c2ccccc2)CC1

Log Ki [4]: -9.5
Compound: COc1ccccc1N1CCN(CCCCNC(=O)c2ccc(-c3ccc(S(C)(=O)=O)cc3)cc2)CC1

Ki [1]: 380 nM | Ki [2]: 1.2 nM
Compound: Cc1ccc(C(=O)NCN2CCN(c3ccccc3C#N)CC2)cc1

Ki [1]: 178 nM | Ki [2]: 107 nM
Compound: O=C(NCN1CCN(c2ccccc2Cl)CC1)c1ccccc1

Log Ki [4]: -8.5
Compound: COc1ccc(OC)c(N2CCN(CCCCNC(=O)c3ccc(Br)cc3)CC2)c1

Log 1/Ki [8]: 6.78
Compound: Cn1c2c(c(=O)n(C)c1=O)N1CC(Br)=C(NCCN3CCN(c4cccc(Cl)c4)CC3)NC1N2 (stereo not given)

Ki [1]: 2450 nM | Ki [2]: 12.9 nM
Compound: COc1ccccc1N1CCN(CNC(=O)c2cccc(C)c2)CC1

Compound: Fc1ccc(C(OC2CC3CCC(C2)N3CCNCc2ccccc2)c2ccc(F)cc2)cc1 (stereo not given)
Ki [7]: 8.13 nM

Log 1/Ki [9]: 5.37
Compound: CN1CCN(C2=Cn3c(/C=N/O)ccc3Sc3ccccc32)CC1

Log Ki [4]: -9.5
Compound: COc1ccccc1N1CCN(CCCCNC(=O)c2ccc(-c3ccc(C(C)=O)cc3)cc2)CC1

Log 1/Ki [8]: 7.03
Compound: Cn1c(=O)c2c(nc3nc(NCCCN4CCN(c5cccc(Cl)c5)CC4)ccn32)n(C)c1=O

Log 1/Ki [8]: 6.74
Compound: Cn1c2c(c(=O)n(C)c1=O)N1CC=C(NCCN3CCN(c4cccc(Cl)c4)CC3)NC1N2 (stereo not given)

Compound: Fc1ccc(C(OC2CC3CCC(C2)N3CCOCCN2CCOCC2)c2ccc(F)cc2)cc1 (stereo not given)
Ki [7]: 661 nM

Log 1/Ki [6]: 9.1
Compound: CCN1CCCC1CNC(=O)c1c(O)c(CCCF)cc(OC)c1OC (stereo not given)

Log 1/Ki [8]: 5.9
Compound: Cn1c2c(c(=O)n(C)c1=O)N1CC(Br)=C(NCCN3CCN(c4ccccc4)CC3)NC1N2 (stereo not given)

Log 1/Ki [6]: 7.18
Compound: CCN1CCCC1CNC(=O)c1cccc(OC)c1OC (stereo not given)

Ki [1]: 603 nM | Ki [2]: 3.89 nM
Compound: N#Cc1ccccc1N1CCN(CNC(=O)c2ccc(Cl)cc2)CC1

Compound: Fc1ccc(C(OC2CC3CCC(C2)N3CCOCc2ccccc2)c2ccc(F)cc2)cc1 (stereo not given)
Ki [7]: 22.4 nM

Log 1/Ki [3]: 7.64 | Log 1/Ki [4]: 7.49 | Log 1/Ki [5]: 6.71
Compound: O=C(CCCN1CCC(CCO)(c2ccc(Cl)cc2)C1)c1ccc(F)cc1 (stereo not given)

Log 1/Ki [8]: 6.49
Compound: COc1ccccc1N1CCN(CCCNc2nc3nc4c(c(=O)n(C)c(=O)n4C)n3cc2Br)CC1

Ki [1]: 269 nM | Ki [2]: 3.47 nM
Compound: COc1ccccc1N1CCN(CNC(=O)c2ccc(Cl)cc2)CC1

Compound: NCCN1[C@@H]2CC[C@H]1C[C@@H](OC(c1ccc(F)cc1)c1ccc(F)cc1)C2
Ki [7]: 25.7 nM

Compound: Fc1ccc(C(OC2CC3CCC(C2)N3CCOCc2cccs2)c2ccc(F)cc2)cc1 (stereo not given)
Ki [7]: 18.6 nM

Log 1/Ki [8]: 6.37
Compound: Cn1c(=O)c2c(nc3nc(NCCCN4CCN(c5ccccc5)CC4)ccn32)n(C)c1=O

Log 1/Ki [6]: 8.16
Compound: CCCc1cc(OC)c(OC)c(C(=O)NCC2CCCN2CC)c1 (stereo not given)

Compound: OCCOCCN1C2CCC1CC(OC(c1ccc(F)cc1)c1ccc(F)cc1)C2 (stereo not given)
Ki [7]: 49 nM

Log 1/Ki [3]: 8.1 | Log 1/Ki [4]: 8.05 | Log 1/Ki [5]: 7.23
Compound: Cc1ccc(CC2(O)CCN(CCCC(=O)c3ccc(F)cc3)CC2)cc1

Log 1/Ki [8]: 6.38
Compound: Cn1c(=O)c2c(nc3nc(NCCCN4CCN(c5ccccc5)CC4)c(Br)cn32)n(C)c1=O

Log 1/Ki [8]: 6.58
Compound: Cn1c(=O)c2c(nc3nc(NCCCN4CCN(c5cccc(Cl)c5)CC4)c(Br)cn32)n(C)c1=O

Log Ki [4]: -9.3
Compound: COc1ccccc1N1CCN(CCCCNC(=O)c2ccc(Br)cc2)CC1

Log 1/Ki [8]: 5.93
Compound: COc1ccccc1N1CCN(CCCNc2ccn3c(n2)nc2c3c(=O)n(C)c(=O)n2C)CC1

Log 1/Ki [3]: 7.81 | Log 1/Ki [4]: 6.96 | Log 1/Ki [5]: 7.11
Compound: O=C(CCCN1CCC(CO)(c2ccc(Cl)cc2)CC1)c1ccc(F)cc1

Log 1/Ki [6]: 8.36
Compound: CCN1CCCC1CNC(=O)c1cc(CCCF)cc(OC)c1OC (stereo not given)

— ChEMBL document CHEMBL1143544, “The role of QSAR in dopamine interactions” (Bioorg Med Chem Lett, 2005)
